pEC50, pIC50: −log10 of the molar value. Like-named read-outs stand apart in the source and are kept apart here. Bounds are passed on as bounds.

The test system of assay [1] is HCV replicon in Huh7 cells. Kind of assay: HCV replicon cell-based assay. Set-up: species or system HCV strain 1B. As to conditions: Hepatitis C virus, Huh-7, HCV replicon, Huh7 cells. Background: Replicon systems follow genome replication, usually without infectious particles.
Assay [2] concerns the target T1, human leukocyte elastase (HLE) (Homo sapiens, UniProt P08246).
T1 construct: purchased Sigma
T1 sequence (P08246 30-267): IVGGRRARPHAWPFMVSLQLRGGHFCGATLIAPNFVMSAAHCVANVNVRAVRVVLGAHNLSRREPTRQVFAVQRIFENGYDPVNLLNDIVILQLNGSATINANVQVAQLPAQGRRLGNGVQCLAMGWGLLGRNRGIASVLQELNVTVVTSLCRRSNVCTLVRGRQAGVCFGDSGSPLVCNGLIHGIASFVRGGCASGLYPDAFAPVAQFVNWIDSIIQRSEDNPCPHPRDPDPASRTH
Kind of assay: Specificity assay, HLE. As to conditions: 2 hr pre-incubation. Format: biochemical. As for the experimental part: The specificities of compounds of the present invention were determined against a variety of serine proteases: human leukocyte elastase (HLE), porcine pancreatic elastase (PPE) and human pancreatic chymotrypsin and one cysteine protease: human liver cathepsin B. In all cases a 96-well plate format protocol using colorimetric p -nitroaniline (pNA) substrate specific for each enzyme was used as described previously (Patent WO 00/09543) with some modifications to the serine protease assays. All enzymes were purchased from Sigma while the substrates were from Bachem.
Each assay included a 2 hr enzyme-inhibitor pre-incubation at RT followed by addition of substrate and hydrolysis to ˜30% conversion as measured on a Spectramax Pro microplate reader. Compound concentrations varied from 100 to 0.4 μM depending on their potency. […]
The percentage of inhibition was calculated using the formula: [1−((UVinh−UVblank)/(UVctl−UVblank))]×100 […]

Consider `C=C[C@@H]1C[C@]1(NC(=O)[C@@H]1C[C@@H](Oc2nc(C3CC3)cc3ccccc23)CN1C(=O)[C@@H](NC(=O)OC(C)(C)C)C(C)(C)C)C(=O)NS(=O)(=O)C1CC1` [Compound 34], for which the pEC50 in assay [1] (read-out: EC50 range) is 6.00 to 7.00; in assay [1] (read-out: EC50 value in the replicon assay) it was 6.78. The compound also showed a pIC50 in assay [2] of less than 4.00.

As a reminder, the pEC50 is the negative decadic logarithm of the EC50, by convention in mol/L. As a reminder, the pIC50 is the negative decadic logarithm of the IC50, by convention in mol/L. Read a low pIC50 as a high IC50.

The values above are taken from US7915291B2, “Hepatitis C virus inhibitors” (Bristol-Myers Squibb Company, priority 2002, dated 2011).
